For 22 compounds, IC50 results are on record in patent US11186577B2, “Vasopressin receptor antagonists and products and methods related thereto” (BlackThorn Therapeutics, Inc., priority 2017, dated 2021).

Sequence of human Arginine Vasopressin Receptor 1a (AVPR1a) (P37288 whole entry): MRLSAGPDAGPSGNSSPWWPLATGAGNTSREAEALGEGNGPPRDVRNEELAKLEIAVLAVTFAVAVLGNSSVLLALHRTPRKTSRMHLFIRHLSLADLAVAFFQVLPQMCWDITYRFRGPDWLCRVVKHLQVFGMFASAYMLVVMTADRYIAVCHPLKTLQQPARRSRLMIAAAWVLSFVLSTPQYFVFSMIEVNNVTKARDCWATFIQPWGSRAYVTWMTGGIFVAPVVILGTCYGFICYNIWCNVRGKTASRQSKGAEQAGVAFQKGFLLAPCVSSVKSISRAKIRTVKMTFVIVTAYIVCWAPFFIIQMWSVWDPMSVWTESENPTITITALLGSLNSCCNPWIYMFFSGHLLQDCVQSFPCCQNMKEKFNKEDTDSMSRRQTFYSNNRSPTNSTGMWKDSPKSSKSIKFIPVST

This assay has as its target human Arginine Vasopressin Receptor 1a (AVPR1a) (Homo sapiens (Human), UniProt P37288). As to the kind of experiment: Vasopressin V1A receptor antagonist assay (AVP-evoked calcium, FLIPR, CHO-AVPR1a cells). It counts as cell-based. The conditions noted are these: read-out: V1a IC50. As for the experimental part: The purpose of this assay was to determine the inhibitory effect of synthesized compounds on the Vasopressin V1a receptor. The assay as performed in Chinese Hamster Ovary (CHO) cells expressing the human Arginine Vasopressin Receptor 1a (AVPR1a). Arginine Vasopressin (AVP) evokes an increase in intracellular calcium in CHO-AVPR1a cells which is measured in a fluorescence assay on the FLIPR^TETRA using calcium sensitive dyes. Test compounds were assessed for their ability to affect the magnitude of the response to AVP, with antagonists showing a concentration-dependent reduction in the AVP-mediated fluorescence. Compounds were tested in duplicate in a 10-point, 1:3 dilution series starting at a nominal concentration of 3 μM in the assay.
CHO-AVPR1a cells were maintained in routine culture in T175 Flasks at 37° C., 5% CO2. The growth medium consists of Ham's F12 media supplemented with 10% v/v fetal bovine serum, 1× non-essential amino acids, and 0.4 mg/ml Geneticin G418.
On day one, cells were harvested from T175 flasks when they are 80-90% confluent by first washing the cell monolayer with PBS and then dissociated using trypsin 0.05%/EDTA (3 mL for a T175 Flask). The flasks were incubated at room temperature until the cells detached. To the cell suspension, 10 ml of growth media was added and the cell density determined using the Vi-Cell automated cell counter. The cells were spun at 1000 rpm for 3 minutes, then the supernatant was carefully removed and discarded. The cell pellet was re-suspended at 6.0e^5 cells/ml in growth media. 25 μL of cells in growth media was dispensed into each well (15,000 cells per well) of a poly-D-lysine coated black, clear bottomed, 384-well plate. The plates were incubated at 37° C., 5% CO2 overnight.
At the start of each assay day, the potency of AVP was assessed and an EC80 concentration determined for subsequent compound profiling. Assays were performed using a two-step addition protocol on the FLIPR^TETRA; first addition of 5 μl of control or test compound at 10× final in assay buffer with 15 min incubation at 37° C., 5% CO2 followed by 10 μl of AVP at 6× final concentration in assay buffer. […] The assay buffer consisted of HBSS (+Ca/+Mg) supplemented with 20 mM HEPES, and for the preparation of the AVP agonist only, 0.1% w/v bovine serum albumin. The assay was initiated by the removal of growth media from the cells and replacement with 45 μl of Calcium-6 dye (Molecular Devices) prepared at 1× in assay buffer. Cells are loaded with dye for 60-90 min at 37° C., 5% CO2 before initiation of the FLIPR^TETRA protocol. […] At the end of the incubation period, 10 μl of AVP in assay buffer containing 0.1% BSA was added at the previously determined EC80 concentration.
The term IC50 denotes the point on the concentration scale where inhibition reaches its midpoint. Turning to `CC(C)OC(=O)N1Cc2cc(Cl)ccc2-n2c(C3CC4(C3)CN(c3ccc(F)cn3)C4)nnc2C1C` (single isomer, unassigned) [Cpd 163B], the IC50 lay in the range of 0.5 to 1 µM.

Regarding `COC(=O)N1Cc2cc(Cl)ccc2-n2c(C3CC4(C3)CN(c3cnccn3)C4)nnc2C1C` (single isomer, unassigned) [Cpd 165B], the IC50 was 0.5 to 1 µM.

`COC(=O)N1Cc2cc(Cl)ccc2-n2c(C3CC4(C3)CN(c3ncccn3)C4)nnc2C1C` (single isomer, unassigned) [Cpd 166B]: the IC50 is 0.5 to 1 µM.

For the compound `CC(C)OC(=O)N1Cc2cc(Cl)ccc2-n2c(C3CC4(C3)CN(c3ncccn3)C4)nnc2C1C` (single isomer, unassigned) [Cpd 167B], the IC50 was more than 1 µM.

In the case of `CCOC(=O)N1Cc2cc(Cl)ccc2-n2c(C3CC4(C3)CN(c3ncccn3)C4)nnc2C1C` (single isomer, unassigned) [Cpd 168B], the IC50 is 0.1 to 0.5 µM.

In the case of `CCOC(=O)N1Cc2cc(Cl)ccc2-n2c(C3CC4(C3)CN(c3ccc(F)cn3)C4)nnc2C1C` (single isomer, unassigned) [Cpd 169B], the IC50 lay in the range of 0.1 to 0.5 µM.

As for `COC(=O)N1Cc2cc(Cl)ccc2-n2c(C3CC4(C3)CN(c3ncc(F)cn3)C4)nnc2C1C` (single isomer, unassigned) [Cpd 170B], the IC50 lay within 0.5 to 1 µM.

On to `CCOC(=O)N1Cc2cc(Cl)ccc2-n2c(C3CC4(C3)CN(c3ncc(F)cn3)C4)nnc2C1C` (single isomer, unassigned) [Cpd 172B], for which the IC50 was more than 1 µM.

`CC1c2nnc(C3CC4(C3)CN(c3ccc(F)cn3)C4)n2-c2ccc(Cl)cc2CN1C(=O)C(C)(C)F` (single isomer, unassigned) [Cpd 178B]: the IC50 is 0.1 to 0.5 µM.

For the compound `CC1c2nnc(C3CC4(C3)CN(c3ccc(F)cn3)C4)n2-c2ccc(Cl)cc2CN1C` (single isomer, unassigned) [Cpd 179B], the IC50 lay within 0.1 to 0.5 µM.

As to `CC1c2nnc(C3CC4(C3)CN(c3ccccn3)C4)n2-c2ccc(Cl)cc2CN1C(=O)C1(F)CC1` (single isomer, unassigned) [Cpd 181B], the IC50 lay within 0.1 to 0.5 µM.

Regarding `COC(=O)N1Cc2cc(Cl)ccc2-n2c(C3CC4(C3)CN(c3ccncn3)C4)nnc2C1C` (single isomer, unassigned) [Cpd 184B], the IC50 was more than 1 µM.

In the case of `CC(C)OC(=O)N1Cc2cc(Cl)ccc2-n2c(C3CC4(C3)CN(c3ccncn3)C4)nnc2C1C` (single isomer, unassigned) [Cpd 187A], the IC50 is less than 0.1 µM.

Regarding `CC(C)OC(=O)N1Cc2cc(Cl)ccc2-n2c(C3CC4(C3)CN(c3ccncn3)C4)nnc2C1C` (single isomer, unassigned) [Cpd 187B], the IC50 was more than 1 µM.

As for `COC(=O)N1Cc2cc(Cl)ccc2-n2c(C3CC4(C3)CN(c3ncncc3F)C4)nnc2C1C` (single isomer, unassigned) [Cpd 188A], the IC50 is less than 0.1 µM.

`COC(=O)N1Cc2cc(Cl)ccc2-n2c(C3CC4(C3)CN(c3ncncc3F)C4)nnc2C1C` (single isomer, unassigned) [Cpd 188B]: the concentration for half-maximal inhibition (IC50) is more than 1 µM.

Regarding `CC1c2nnc(C3CC4(C3)CN(c3ccc(F)cn3)C4)n2-c2ccc(Cl)cc2CN1C(=O)OC1CC1` (single isomer, unassigned) [Cpd 191B], the IC50 was more than 1 µM.

As for `CC1c2nnc(C3CC4(C3)CN(c3ncc(F)cn3)C4)n2-c2ccc(Cl)cc2CN1C(=O)OC1CC1` (single isomer, unassigned) [Cpd 192B], the IC50 is more than 1 µM.

Turning to `CC1c2nnc(C3CC4(C3)CN(c3ncc(F)cn3)C4)n2-c2ccc(Cl)cc2CN1C(=O)OC(CF)CF` (single isomer, unassigned) [Cpd 194B], the IC50 is more than 1 µM.

In the case of `CC(C)OC(=O)N1Cc2cc(Cl)ccc2-n2c(C3CC4(C3)CN(c3ncc(F)cn3)C4)nnc2C1C` (single isomer, unassigned) [Cpd 201B], the IC50 lay in the range of 0.5 to 1 µM.

`CN1Cc2cc(Cl)ccc2-n2c(nnc2C2CC3(C2)CN(C(=O)c2ccccn2)C3)C1` [compound 24]: the IC50 was more than 1 µM.

On to `CN1Cc2cc(Cl)ccc2-n2c(nnc2C2CC3(C2)CN(C(=O)N2CCOCC2)C3)C1` [compound 25], for which the IC50 was more than 1 µM.
